In ChEMBL document CHEMBL1122769, “Mesoionic xanthine analogues: antagonists of adenosine receptors” (J Med Chem, 1984):

What was measured:
Adenosine receptor A1 = biological target: T1, Adenosine receptor A1 (Rattus norvegicus, UniProt P25099); assay: Antagonism of adenosine A1 receptor assessed from the ability to inhibit binding of [3H]cyclohexyladenosine to rat cerebral cortical membranes; format: cell membranes, Membrane
T1 sequence (P25099 whole entry): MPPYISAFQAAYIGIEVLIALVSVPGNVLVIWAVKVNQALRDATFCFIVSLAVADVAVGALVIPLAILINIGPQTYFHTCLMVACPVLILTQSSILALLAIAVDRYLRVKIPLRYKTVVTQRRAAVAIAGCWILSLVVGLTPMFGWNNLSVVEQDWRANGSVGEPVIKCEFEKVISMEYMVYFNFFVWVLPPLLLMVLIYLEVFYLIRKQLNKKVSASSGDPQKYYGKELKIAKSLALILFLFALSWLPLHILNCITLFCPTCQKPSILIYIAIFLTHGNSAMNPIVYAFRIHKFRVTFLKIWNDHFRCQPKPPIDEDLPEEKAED

Cavia porcellus = species on record: Cavia porcellus; assay: Ability to inhibit 2-chloroadenosine (15 uM)-elicited accumulations of cyclic AMP in guinea pig cerebral cortical slices

Row | Structure (SMILES) | IC50 (Adenosine receptor A1) [µM] | IC50 (Cavia porcellus) [µM]
1 | CCCn1c(=O)c2nc[nH]c2n(CCC)c1=O | 1.5 | 8.1
2 | O=c1c2[nH]cnc2n(Cc2ccccc2)c(=O)n1Cc1ccccc1 | 7 | 35
3 | CCCCCN1C(=O)C(C)C(=O)N2N=CSC12 (configuration not stated) | 120 | > 250
4 | CCC1C(=O)N2C=CSC2N(CC)C1=O (configuration not stated) | 120 | 150
5 | CCN1C(=O)C(Cc2ccccc2)C(=O)N2N=CSC12 (configuration not stated) | 58 | > 200
6 | CCC1C(=O)N(CC(C)C)C2Sc3ccccc3N2C1=O (configuration not stated) | 41 | 15
7 | O=C1C(Cc2ccccc2)C(=O)N(CC2CC2)C2SC=CN12 (configuration not stated) | 160 | 200
8 | CCC1C(=O)N2C=Cc3ccccc3C2N(CC)C1=O (configuration not stated) | 27 | 30
9 | CCC1C(=O)N2C=CSC2N(Cc2cc(OC)cc(OC)c2)C1=O (configuration not stated) | 95 | 250
10 | CCN1C(=O)CC(=O)N2N=CSC12 (configuration not stated) | 110 | > 250
11 | CCC1C(=O)SC2N(C)C=CN2C1=O (configuration not stated) | 290 | > 250
12 | CCN1C(=O)C(C)C(=O)N2N=CSC12 (configuration not stated) | 60 | > 250
13 | CCC1C(=O)N2C=CSC2N(Cc2ccccc2)C1=O (configuration not stated) | 160 | 150
14 | CCC1C(=O)N(CC)C2SC(C)=NN2C1=O (configuration not stated) | 500 | > 250
15 | CCCC1C(=O)N2C=CSC2N(CCC)C1=O (configuration not stated) | 54 | 250
16 | CCCC1C(=O)N(CC(C)C)C2Sc3ccccc3N2C1=O (configuration not stated) | 30 | 20
17 | CCN1C(=O)C(Cc2ccc(Cl)cc2)C(=O)N2N=CSC12 (configuration not stated) | 45 | > 250
18 | CCC1C(=O)N(CC)C2SC=NN2C1=O (configuration not stated) | 72 | > 250
19 | CCC1C(=O)N(CC)C2SC(c3ccccc3)=NN2C1=O (configuration not stated) | 80 | 250
20 | CCC1C(=O)N2C=CSC2N(CC2CC2)C1=O (configuration not stated) | 100 | 120
21 | CCCC1C(=O)N(C)C2N(C)C=NN2C1=O (configuration not stated) | > 250 | > 250
22 | CCn1c(=O)c2nc[nH]c2n(CC)c1=O | 6.4 | 12
23 | Cn1c(=O)c2nc(-c3ccccc3)[nH]c2n(C)c1=O [8-PHENYL THEOPHYLLINE] |  | 1.65
24 | Cn1c(=O)c2c(ncn2C)n(C)c1=O [CAFFEINE] |  | 150
25 | Cn1c(=O)c2nc[nH]c2n(C)c1=O [THEOPHYLLINE] |  | 42
